From US20250188085A1, “COMPOSITIONS AND METHODS FOR INHIBITION OF RAS” (THERAS, INC., priority 2022, published 2025)

How the values were obtained:
[1] = target: T1, GppNHp-loaded KRAS4b (amino acids 1-169) G12C/C118S protein (Homo sapiens, UniProt P01116, C118S/G12C); assay: Covalent cysteine 12 modification by MALDI-TOF MS, GppNHp-loaded KRAS G12C; assay type: binding; conditions: 15 minutes reaction time point
T1 construct: KRAS4b (amino acids 1-169) G12C/C118S protein; made in house
Method in brief: (§1)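 KRAS4b 1-169 G12C/C118S loaded with GDP, GppNHp or GTP was used at 1 μM in 20 mM HEPES, 150 mM NaCl, 1 mM MgCl2, pH 7.3, and incubated with compound (5 mM DMSO stock) at room temperature in the dark. % modification at 15 min is adduct peak height over total protein peak heights by linear-mode MALDI-TOF.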

[2] = target: T2, GTP-loaded KRAS4b (amino acids 1-169) G12C/C118S protein (Homo sapiens, UniProt P01116, C118S/G12C); assay: Covalent cysteine 12 modification by MALDI-TOF MS, GTP-loaded KRAS G12C; assay type: binding; conditions: 15 minutes reaction time point
T2 construct: KRAS4b (amino acids 1-169) G12C/C118S protein; made in house
Description: Reaction: 1 μM of GppNHp-, GTP-, or GDP-loaded KRAS4b (amino acids 1-169) G12C/C118S protein (produced in-house by Protein Expression Laboratory, FNLCR/Leidos Biomed) in 20 mM 4-(2-hydroxyethyl)-1-piperazineethanesulfonic acid (HEPES) buffer containing 150 mM NaCl, 1 mM MgCl2, pH 7.3 was prepared freshly before assay. Ten-μL aliquots of protein were dispensed onto low volume 384-well plate, then 375 nL DMSO, and 25 nL of tested compounds from 5 mM DMSO stocks were added to appropriate wells using ECHO 555 acoustic liquid handler (Labcyte Inc.). For each reaction/assay, three blanks were prepared by mixing 10 μL of protein solution with 400 nL DMSO. The contents of the wells were carefully mixed by aspiration, and then each plate was sealed with an adhesive cover, centrifuged at 2000 g for 1 minute, and kept in the dark at room temperature until 5 min, 15 min, 30 min, or 2 h collections.
Target pretreatment: Before each assay MALDI target (Bruker MPT 384 ground steel BC) was pre-treated by pipetting on each spot 0.75 μL of saturated sinapinic acid in acetonitrile (ACN).
Sample preparation: At collection time point, 2 μL of reaction mixtures were pipetted out into 20 μL MALDI matrix solution (saturated solution of sinapinic acid in 1:1 ACN:water solution containing 0.75% trifluoroacetic acid (TFA)) deposited on 384 well polypropylene plate. Resulting solution was mixed by aspiration, centrifuged at 2000 g for 1 minute, then 1 μL aliquots were dispensed on pre-treated MALDI target using Beckman Coulter Biomek FXP 96/384-Span-8 Laboratory Automation Workstation. Finally, the MALDI target was dried under mild vacuum to produce spots with fine crystalline structure.
Measurements: MALDI-TOF measurements were performed on a Bruker Daltonics rapiflex Tissuetyper TOF-TOF mass spectrometer using linear mode and mass range from 18.6 to 21.6 kDa. Detector gain was set to 3.3× (483 V), sample rate to 5 GS/s, real time smoothing to medium (175 MHz), laser smart beam pattern was set to: “MS Thin Layer M5”, and the laser frequency was 10000 Hz. Spectra were automatically collected using custom Auto Xecute method. Laser power was auto adjusted using fuzzy control. The peak selection range was set to be between 19000 and 21500 Da. Peak evaluation uses half width parameter set to be smaller than 40 Da for processed spectrograms (centroid peak detection; smoothed by SavitzkyGolay algorithm using 7 m/z width and 2 cycles; baseline was subtracted using median algorithm with flatness 1 and median level 0.01). Fuzzy control used Proteins/Oligonucleotides protocol with minimum half width 1/10 times above threshold. Up to 40000 satisfactory shots were collected in 10000 shot steps. Dynamic termination was implemented to finish data collection when peak signal/noise ratio was reaching value of 50.
Spectra processing: Spectra were smoothed by SavitzkyGolay algorithm using 7 m/z width and three cycles. Centroid peak detection algorithm was used with signal to noise threshold set to 6, relative intensity threshold 4%, peak width 10 m/z and median baseline subtraction using flatness of 1 and median level of 0.01. Peak intensity and area under the peak were evaluated and recorded for all peaks between 19,300 Da and 21,550 Da.
Calculation of percent modification: Percent modification was calculated as a ratio of peak height for protein modified by compound to sum of peak height of remaining protein plus peak height for protein modified by compound. If multiple modifications were observed each was calculated as a ratio of peak height for given modification versus sum of peak heights for all observed protein species. Data reported in Table 5 are from 15 minutes reaction time point.

[3] = target: T3, GDP-loaded KRAS4b (amino acids 1-169) G12C/C118S protein (Homo sapiens, UniProt P01116, C118S/G12C); assay: Covalent cysteine 12 modification by MALDI-TOF MS, GDP-loaded KRAS G12C; assay type: binding; conditions: 15 minutes reaction time point
T3 construct: KRAS4b (amino acids 1-169) G12C/C118S protein; made in house
Method in brief: as §1

[4] = target: T4, Avi-KRAS G12C (1-169) GppNHp/RAF1 RBD-3×FLAG (52-151) (Homo sapiens, UniProt P01116, G12C); assay: Raf1 RBD-KRAS G12C-GppNHp disruption (protein:protein interaction HTRF assay); assay type: biochemical
T4 construct: Avi-KRAS G12C (1-169) GppNHp/RAF1 RBD-3×FLAG (52-151)
Method in brief: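 HTRF measuring disruption of 50 nM Avi-KRAS G12C (1-169) loaded with GppNHp binding RAF1 RBD-3×FLAG (52-151), in pH 7.5 Tris buffer with 5 mM MgCl2, 0.1% BSA, 10% DMSO. KRAS preincubated with compound 1 h, then RBD 1 h, then detection reagents 1 h, all at room temperature. Compound titration 30-0.02 μM; activity expressed as percent of DMSO control.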

pERK in NCI-H358 cells = assay: Cell-based pERK HTRF assay; conditions: Homo sapiens, NCI-H358, 0.5 h, 30 min incubation, read-out: pERK in NCI-H358 cell inhibition IC50
Method in brief: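 Cells seeded at 4×10^4/well in RPMI with 10% FBS, then next day treated for 30 min with a 9-point, 3-fold series from 75 μM top concentration at 0.25% DMSO. Lysates were read for pERK by HTRF (d2/Eu cryptate antibodies) after 4–24 h at room temperature, emission at 615 nm.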

SMILES	GppNHp-KRAS G12C percent of modification [1]	GTP-KRAS G12C percent of modification [2]	GDP-KRAS G12C percent of modification [3]	IC50 [4]	IC50 (pERK in NCI-H358 cells)
C=CC(=O)N1CC[C@@H](Oc2nc(OC[C@@]34CCCN3C[C@H](F)C4)nc3c(F)c(-c4ccc(F)c5sc(N)c(C#N)c45)c(Cl)cc23)[C@@H]1COC [Compound 126]	D (percent of modification <10%)	D (percent of modification <10%)	A (percent of modification ≥70%)	500 to 5000 nM	100 to 1000 nM
C=CC(=O)N1CC[C@@H](Oc2nc(OC[C@@]34CCCN3C[C@H](F)C4)nc3c(Cl)c(-c4ccc(F)c5sc(N)c(C#N)c45)ncc23)[C@@H]1C [Compound 124]	D (percent of modification <10%)	D (percent of modification <10%)	B (50≤percent of modification <70%)	500 to 5000 nM	100 to 1000 nM
C=CC(=O)N1C[C@H](Oc2nc(OC[C@@]34CCCN3C[C@H](F)C4)nc3cc(-c4ccc(F)c5sc(N)c(C#N)c45)c(C(F)(F)F)cc23)[C@@H](F)C1 [Compound 49]	B (50≤percent of modification <70%)	C (10%≤modification <50%)	C (10%≤modification <50%)	≤ 500 nM	≤ 100 nM
C=CC(=O)N1CCC(Oc2nc(OC[C@@]34CCCN3C[C@H](F)C4)nc3c(F)c(-c4ccc(F)c5sc(N)c(C#N)c45)c(C(F)(F)F)cc23)C1(C)C (stereo partly drawn) [Compound 61]	C (10%≤modification <50%)	C (10%≤modification <50%)	C (10%≤modification <50%)	≤ 500 nM	≤ 100 nM
C=CC(=O)N1CC[C@@H](Oc2nc(OC[C@@]34CCCN3C[C@H](F)C4)nc3c(Cl)c(-c4ccc(F)c5sc(N)c(C#N)c45)ncc23)[C@H]1C [Compound 106, 4-(4-(((2R,3R)-1-acryloyl-2-methylpyrrolidin-3-yl)oxy)-8-chloro-2-(((2R,7aS)-2-fluorotetrahydro-1H-pyrrolizin-7a (5H)-yl)methoxy)pyrido[4,3-d]pyrimidin-7-yl)-2-amino-7-fluorobenzo[b]thiophene-3-carbonitrile]	A (percent of modification ≥70%)	A (percent of modification ≥70%)	A (percent of modification ≥70%)	≤ 500 nM	≤ 100 nM
C=CC(=O)N1C[C@H](Oc2nc(OC[C@@]34CCCN3C[C@H](F)C4)nc3c(F)c(-c4ccc(F)c5sc(N)c(C#N)c45)ncc23)[C@@H](F)C1 [Compound 75]	A (percent of modification ≥70%)	A (percent of modification ≥70%)	A (percent of modification ≥70%)	≤ 500 nM	≤ 100 nM
C=CC(=O)N1CC[C@@H](Oc2nc(OC[C@@]34CCCN3C[C@H](F)C4)nc3c(F)c(-c4ccc(F)c5sc(N)c(C#N)c45)ccc23)[C@H]1COC [Compound 97]	A (percent of modification ≥70%)	A (percent of modification ≥70%)	A (percent of modification ≥70%)	≤ 500 nM	≤ 100 nM
C=CC(=O)N1C[C@@H](F)[C@@H](Oc2nc(OC[C@@]34CCCN3C[C@H](F)C4)nc3cc(-c4ccc(F)c5sc(N)c(C#N)c45)c(C(F)(F)F)cc23)C1 [Compound 50]	A (percent of modification ≥70%)	B (50≤percent of modification <70%)	B (50≤percent of modification <70%)	≤ 500 nM	≤ 100 nM
C=CC(=O)N1CC[C@@H](Oc2nc(OC[C@@]34CCCN3C[C@H](F)C4)nc3c(Cl)c(-c4ccc(F)c5sc(N)c(C#N)c45)c(C#N)cc23)[C@H]1C [Compound 105]	A (percent of modification ≥70%)	B (50≤percent of modification <70%)	B (50≤percent of modification <70%)	≤ 500 nM	≤ 100 nM
C=CC(=O)N1CC[C@@H](Oc2nc(OC[C@@]34CCCN3C[C@H](F)C4)nc3c(F)c(-c4ccc(F)c5sc(N)c(C#N)c45)c(C(F)(F)F)cc23)[C@H]1C [Compound 62, 4-(4-(((2R,3R)-1-acryloyl-2-methylpyrrolidin-3-yl)oxy)-8-fluoro-2-(((2R,7aS)-2-fluorotetrahydro-1H-pyrrolizin-7a (5H)-yl)methoxy)-6-(trifluoromethyl)quinazolin-7-yl)-2-amino-7-fluorobenzo[b]thiophene-3-carbonitrile]	B (50≤percent of modification <70%)	C (10%≤modification <50%)	B (50≤percent of modification <70%)	≤ 500 nM	≤ 100 nM
C=CC(=O)N1CC[C@@H](Oc2nc(OC[C@@]34CCCN3C[C@H](F)C4)nc3cc(-c4ccc(F)c5sc(N)c(C#N)c45)c(F)cc23)[C@H]1C [Compound 109]	B (50≤percent of modification <70%)	C (10%≤modification <50%)	A (percent of modification ≥70%)		≤ 100 nM
